Assay results: article PMC10523529 (Proceedings of the National Academy of Sciences of the …, 2023)

Biological target: T1, TAK1 (TAK1-TAB1 fusion protein) (Homo sapiens, UniProt O43318)
T1 sequence (O43318 15-303): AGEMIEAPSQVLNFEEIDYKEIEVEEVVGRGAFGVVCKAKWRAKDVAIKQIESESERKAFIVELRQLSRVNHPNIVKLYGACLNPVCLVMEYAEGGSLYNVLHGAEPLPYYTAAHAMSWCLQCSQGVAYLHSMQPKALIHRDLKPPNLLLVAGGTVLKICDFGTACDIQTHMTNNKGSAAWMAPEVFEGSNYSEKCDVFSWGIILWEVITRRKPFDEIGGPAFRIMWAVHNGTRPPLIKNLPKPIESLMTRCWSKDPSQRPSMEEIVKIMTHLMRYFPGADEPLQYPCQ
T1 sequence (Q15750 468-504 partner): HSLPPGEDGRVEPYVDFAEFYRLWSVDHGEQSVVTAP
Experiment: SPR
Format: binding

Kd: 12.1 µM
SMILES: COc1cc(Nc2ncc(F)c(Nc3ccc4c(n3)N(COP(=O)(O)O)C(=O)C(C)(C)O4)n2)cc(OC)c1OC [R788]
